Measurements as given in patent US10647680B2, “Urea compound, preparation method therefor and medical use thereof” (Ancureall Pharmaceutical (Shanghai) Co., Ltd., priority 2016, dated 2020).

Tests used:
[1] = tested on: ZR-75-30 (HER2/ErbB2 amp); experiment: In vitro growth inhibition (GI50), ZR-75-30; type: cell-based; conditions: Homo sapiens
Text: Tumor cell line is an effective cell model for studying the inhibition of tumor cell growth or proliferation in vitro. In the present invention, a representative tumor cell line was selected to determine the cell growth inhibition activity of the present compound. All cell lines used were from ATCC, DSMZ, and the Cell Bank of the Chinese Academy of Sciences. Cell culture conditions and methods were in accordance with the requirements of each cell line. Cells were subcultured in vitro for no more than 3 passages each time, and as required, single-clone purification and identification of cell lines could be carried out.
The cell culture media used were RPMI1640 (Gibco), MEM (Gibco), McCOY'S5A (Gibco), and IMDM (Gibco). The complete medium was prepared by supplement with 5˜20% fetal calf serum (Gibco), 1% double-antibiotics (10000 units/mL penicillin and 10000 units/mL), 2 mM glutamine or 1 mM sodium pyruvate, respectively.
Human gastric cancer cell line NCI-N87 (HER2/ErbB2 amp, ATCC), human breast cancer cell line HCC1954 (HER2/ErbB2 amp, ATCC) and ZR-75-30 (HER2/ErbB2 amp, ATCC), human adenocarcinoma cell line AU565 (HER2/ErbB2 amp, ATCC), human lung squamous cell carcinoma cell line NCI-H2170 (HER2/ErbB2 amp, ATCC), human bronchioalveolar adenocarcinoma cell line NCI-H1781 (HER2/ErbB2 Ins G776V,C mutant type, ATCC) were cultured with a 1×RPMI1640 complete medium (10% FBS), respectively. Human lung adenocarcinoma cell line Calu-3 (HER2/ErbB2 amp, ATCC) was cultured with 1×MEM, 10% FBS, 1% double antibody, 1% NEAA (Gibco), 2 mM glutamine and 1 mM sodium pyruvate. The human breast cancer cell line SK-BR-3 (HER2/ErbB2 amp, ATCC) was cultured with a McCOY'S5A complete medium (10% FBS).
Adherent cells were digested with 0.25% pancreatin-EDTA (Gibco). The suspension cells were collected by centrifugation. The supernatant was discarded and the cell pellet was resuspended and counted. Different cell concentrations (5˜10×10^4 cells/mL) were prepared according to the growth cycle of each cell line and then seeded on a 96-well plate (Corning), 100 μL/well. The cells were incubated overnight at 37° C., 5% CO2. The compounds were added to the cells on the second day with 2 wells in parallel. The final concentration of organic solvent shall not exceed 1%. The cells were continually incubated for 3 to 5 days, and then subjected to MTT assay.
The compound of the present invention and the control compound were dissolved in DMSO (Sigma) respectively, with the purity of more than 98%. The compound was stored in a concentration of 10 mM at −20° C. and diluted to 2- or 10-fold series prior to use.
Dojindo CCK8 reagent kit was used as MTT assay. THERMO […] FC meter was used as microplate reader.
For adherent cells, culture medium was removed and immediately replaced with the fresh prepared medium which contains 10% CCK8 reagent (100 μL/well). For the suspension cells, CCK8 was directly added to 10% of the final concentration. The cells were continually incubated for 1˜4 h. When a dark yellow color could be observed in the solvent control wells, the absorbance value at OD450 nm was measured and the cell growth rate was calculated according to the following formula: Cell Growth Rate (%)=100*(T−T0)/(C−T0) T=optical density of drug treatment cell well—optical density of blank control well; T0=optical density of cell well before drug treatment—optical density of blank control well; C=optical density of cell well of solvent control group—optical density of blank control well. The concentration value of 50% inhibition of cell growth (GI50) was calculated according to the drug concentration and cell growth rate curve. The experiment was independently repeated 1˜3 times, and subject to biological statistical analysis. 4. Experimental Results
Tumor cell growth inhibition test was performed by selecting representative compounds (compounds 4, 11, 12, 16, 27, 68, 71, 77, 79, 89 and 116 of the present invention). […]

[2] = tested on: RAMOS (positive expression of Brutons tyrosine protein kinase); experiment: In vitro growth inhibition (GI50), RAMOS; type: cell-based; conditions: Homo sapiens, Cell lines of leukemia, read-out: GI 50 Ramos BTK

Row | GI50 [2] | SMILES | GI50 [1]
1 | 100 to 1000 nM | CC(C)(C)c1cc(NC(=O)Nc2ccc(-n3cnc4cc(O)ccc43)cc2)no1 [Compound 4, 1-(5-tert-butyl-isoxazol-3-yl)-3-[4-(5-hydroxy-benzimidazol-1-yl)-phenyl]-urea] | > 2500 nM
2 | > 1000 nM | CC(C)(C)c1cc(NC(=O)Nc2ccc(-n3cnc4cc(OCCO)ccc43)cc2)no1 [Compound 11, 1-(5-tert-butyl-isoxazol-3-yl)-3-{4-[5-(2-hydroxy-ethoxyl)-benzimidazol-1-yl]-phenyl]-urea] | > 2500 nM
3 | > 1000 nM | CC(C)(C)c1cc(NC(=O)Nc2ccc(-n3cnc4cc(OCCN5CCOCC5)ccc43)cc2)no1 [Compound 16, 1-(5-tert-butyl-isoxazol-3-yl)-3-{4-[5-(2-morpholin-4-yl-ethoxyl)-benzimidazol-1-yl]-phenyl}-urea] | > 2500 nM
4 | > 1000 nM | CC(C)(C)c1cc(NC(=O)Nc2ccc(-n3cnc4ccc(OCCN5CCOCC5)cc43)cc2)no1 [Compound 27, 1-(5-tert-butyl-isoxazol-3-yl)-3-{4-[6-(2morpholin-4-yl-ethoxyl)-benzimidazol-1-yl]-phenyl}-urea] | > 2500 nM
5 | > 1000 nM | CC(C)(C)c1cc(NC(=O)Nc2ccc(-n3cnc4ccccc43)cc2)[nH]n1 [Compound 68, 1-(4-benzimidazol-1-yl-phenyl)-3-(5-tert-butyl-2H-pyrazol-3-yl)-urea] | > 2500 nM
6 | > 1000 nM | COc1ccc2c(c1)ncn2-c1ccc(NC(=O)Nc2cc(C(C)(C)C)n[nH]2)cc1 [Compound 71, 1-(5-tert-butyl-2H-pyrazol-3-yl)-3-[4-(5-methoxyl-benzimidazol-1-yl)-phenyl]-urea] | > 2500 nM
7 | > 1000 nM | CC(C)(C)c1cc(NC(=O)Nc2ccc(-n3cnc4cc(OCCO)ccc43)cc2)[nH]n1 [Compound 79, 1-(5-tert-butyl-2H-pyrazol-3-yl)-3-{4-[5-(2-hydroxy-ethoxyl)-benzimidazol-1-yl]-phenyl]urea] | > 2500 nM
8 | > 1000 nM | CC(C)(C)c1cc(NC(=O)Nc2ccc(-n3cnc4cc(OCCN5CCOCC5)ccc43)cc2)[nH]n1 [Compound 89, 1-(5-tert-butyl-2H-pyrazol-3-yl)-3-{4-[5-(2-morpholin-4-yl-ethoxyl)-benzimidazol-1-yl]-phenyl}-urea] | > 2500 nM
9 | > 1000 nM | CC(C)(C)c1cc(N)n(C(=O)Nc2ccc(-n3cnc4ccccc43)cc2)n1 [Compound 116, 5-amino-3-tert-butyl-pyrazol-1-carboxylic acid (4-benzimidazol-1-yl-phenyl)-amide] | > 2500 nM

Row | SMILES | GI50 [2] | GI50 [1]
10 | COCCOc1ccc2c(c1)ncn2-c1ccc(NC(=O)Nc2cc(C(C)(C)C)n[nH]2)cc1 [Compound 77, 1-(5-tert-butyl-2H-pyrazol-3-yl)-3-{4-[5-(2-methoxyl-ethoxyl)-benzimidazol-1-yl]-phenyl}-urea] | > 1000 nM | > 2500 nM
